Drawing on US11034672B1, “Tyrosine kinase inhibitor compositions, methods of making and methods of use” (Black Diamond Therapeutics, Inc., priority 2018, dated 2021), this text covers IC50 for 12 molecules.

Where only a bound is given, the exact number is not on record here.

Common to all, as to assay type: cell-based
In assay [1] the target is T1, EGFR WT (Homo sapiens, UniProt P00533). The assay can be described thus: Activity for inhibiting EGFR (Table A), EGFR WT. As to conditions: read-out: EGFR WT, potency code (IC50).
The target in assay [2] is T2, EGFR V3 (Homo sapiens, UniProt P00533, DELINS30-297G).
T2 construct: expressed in transfected cells; host or cells: BaF3 (murine pro-B), retroviral pMXs-IRES-Blasticidin
As to the kind of experiment: Activity for inhibiting EGFR (Table A), EGFR V3 (EGFR-Viii). The conditions noted are these: read-out: EGFR V3, potency code (IC50).

The target of assay [3] is T3, HER2 S310F (Homo sapiens, UniProt P04626, S310F).
T3 construct: expressed in transfected cells; host or cells: BaF3 (murine pro-B)
As to the kind of experiment: Activity for inhibiting HER2 (Table B), HER2 S310F. The conditions noted are these: read-out: HER2 S310F, potency code (IC50). As to the method: (§1) EC50 values were determined with the same application.

Assay [4] addresses T4, HER2 YVMA (Homo sapiens, UniProt P04626, INS775YVMA).
T4 construct: expressed in transfected cells; host or cells: BaF3 (murine pro-B)
The assay can be described thus: Activity for inhibiting HER2 (Table B), HER2 YVMA. The conditions noted are these: read-out: HER2 YVMA, potency code (IC50). On the procedure:
as §1

The target in assay [5] is T1, EGFR WT. As to the kind of experiment: BaF3 cell proliferation assay, EGFR WT (Table A). As to conditions: potency code, 3 days, CellTiterGlo, read-out: EGFR WT (Activity for Inhibiting EGFR). A digest of the protocol: (§2)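 EC50s reflect growth of IL-3-independent BaF3 lines whose proliferation depends on the introduced human receptor variant. Lines were produced by retroviral infection and one week of 10 μg/ml Blasticidin selection.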
In general terms: ATP-based viability assays read luminescence as a measure of living cells.

In assay [6] the target is T2, EGFR V3. The assay can be described thus: BaF3 cell proliferation assay, EGFR V3 (Table A). The conditions noted are these: potency code, 3 days, CellTiterGlo, read-out: EGFR V3 (Activity for Inhibiting EGFR). A digest of the protocol: as §2
Assay [7] has as its target T3, HER2 S310F. The assay can be described thus: BaF3 cell proliferation assay, HER2 S310F (Table B). The conditions noted are these: potency code, 3 days, CellTiterGlo, read-out: HER2 S310F (Activity for Inhibiting HER2).
In assay [8] the target is T4, HER2 YVMA. As to the kind of experiment: BaF3 cell proliferation assay, HER2 YVMA (Table B). The conditions noted are these: potency code, 3 days, CellTiterGlo, read-out: HER2 YVMA (Activity for Inhibiting HER2).

T2 sequence (P00533 with tags, fused parts or gaps DELINS30-297G): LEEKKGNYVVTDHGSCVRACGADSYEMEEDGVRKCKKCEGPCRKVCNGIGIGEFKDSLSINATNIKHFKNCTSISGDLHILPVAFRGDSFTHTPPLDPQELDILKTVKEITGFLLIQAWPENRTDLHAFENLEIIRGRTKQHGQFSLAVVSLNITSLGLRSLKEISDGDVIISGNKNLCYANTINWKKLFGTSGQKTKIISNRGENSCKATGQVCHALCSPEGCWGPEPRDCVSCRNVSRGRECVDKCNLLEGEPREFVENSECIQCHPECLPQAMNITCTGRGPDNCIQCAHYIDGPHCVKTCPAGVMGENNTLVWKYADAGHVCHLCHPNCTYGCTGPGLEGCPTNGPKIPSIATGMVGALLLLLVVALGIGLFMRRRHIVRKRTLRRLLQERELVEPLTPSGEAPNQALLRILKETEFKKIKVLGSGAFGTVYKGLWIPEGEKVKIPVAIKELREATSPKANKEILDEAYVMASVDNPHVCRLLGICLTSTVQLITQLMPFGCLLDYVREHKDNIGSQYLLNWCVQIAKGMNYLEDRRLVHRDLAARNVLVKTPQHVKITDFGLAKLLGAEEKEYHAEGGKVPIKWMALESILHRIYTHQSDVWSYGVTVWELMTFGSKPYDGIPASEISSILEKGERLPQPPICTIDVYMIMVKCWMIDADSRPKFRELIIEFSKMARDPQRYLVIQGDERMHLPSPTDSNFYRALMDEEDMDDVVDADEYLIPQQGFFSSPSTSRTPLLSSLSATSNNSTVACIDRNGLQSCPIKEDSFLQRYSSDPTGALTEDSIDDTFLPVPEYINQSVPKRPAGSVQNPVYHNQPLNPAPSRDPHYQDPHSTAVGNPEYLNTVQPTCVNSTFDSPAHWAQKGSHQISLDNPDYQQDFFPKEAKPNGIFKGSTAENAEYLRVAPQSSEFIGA
T1 sequence (P00533 25-1210 N540K): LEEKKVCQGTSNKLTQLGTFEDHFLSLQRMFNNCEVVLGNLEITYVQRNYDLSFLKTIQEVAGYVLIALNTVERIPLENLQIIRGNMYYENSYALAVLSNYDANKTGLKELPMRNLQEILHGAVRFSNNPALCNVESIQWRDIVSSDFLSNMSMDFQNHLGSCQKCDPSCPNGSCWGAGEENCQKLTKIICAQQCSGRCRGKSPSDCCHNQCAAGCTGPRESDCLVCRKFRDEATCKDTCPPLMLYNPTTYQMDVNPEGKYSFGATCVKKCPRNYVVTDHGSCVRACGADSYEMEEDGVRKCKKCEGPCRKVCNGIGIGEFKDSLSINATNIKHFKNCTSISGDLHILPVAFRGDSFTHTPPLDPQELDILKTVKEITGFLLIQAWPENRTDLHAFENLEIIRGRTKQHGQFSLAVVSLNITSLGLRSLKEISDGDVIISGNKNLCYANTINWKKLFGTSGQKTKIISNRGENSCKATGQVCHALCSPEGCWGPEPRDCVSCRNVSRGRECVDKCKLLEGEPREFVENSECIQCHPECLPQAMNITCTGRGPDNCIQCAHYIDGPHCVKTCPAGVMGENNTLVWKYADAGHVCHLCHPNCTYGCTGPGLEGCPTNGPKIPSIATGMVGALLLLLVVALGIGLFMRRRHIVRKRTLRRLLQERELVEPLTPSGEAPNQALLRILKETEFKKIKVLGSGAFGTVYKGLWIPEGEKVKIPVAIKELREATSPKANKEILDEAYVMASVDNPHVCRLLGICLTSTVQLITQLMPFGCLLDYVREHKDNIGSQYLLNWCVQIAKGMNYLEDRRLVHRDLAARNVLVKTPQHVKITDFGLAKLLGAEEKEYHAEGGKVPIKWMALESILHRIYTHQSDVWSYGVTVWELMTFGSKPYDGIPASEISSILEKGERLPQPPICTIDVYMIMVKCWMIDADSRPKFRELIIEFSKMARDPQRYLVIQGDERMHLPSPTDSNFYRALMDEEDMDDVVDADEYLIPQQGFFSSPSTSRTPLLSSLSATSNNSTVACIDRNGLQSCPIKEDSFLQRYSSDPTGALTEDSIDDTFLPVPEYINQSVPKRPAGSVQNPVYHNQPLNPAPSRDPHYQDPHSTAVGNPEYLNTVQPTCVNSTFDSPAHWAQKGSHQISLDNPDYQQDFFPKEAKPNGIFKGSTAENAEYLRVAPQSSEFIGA
T3 sequence (P04626 23-1255 S310F): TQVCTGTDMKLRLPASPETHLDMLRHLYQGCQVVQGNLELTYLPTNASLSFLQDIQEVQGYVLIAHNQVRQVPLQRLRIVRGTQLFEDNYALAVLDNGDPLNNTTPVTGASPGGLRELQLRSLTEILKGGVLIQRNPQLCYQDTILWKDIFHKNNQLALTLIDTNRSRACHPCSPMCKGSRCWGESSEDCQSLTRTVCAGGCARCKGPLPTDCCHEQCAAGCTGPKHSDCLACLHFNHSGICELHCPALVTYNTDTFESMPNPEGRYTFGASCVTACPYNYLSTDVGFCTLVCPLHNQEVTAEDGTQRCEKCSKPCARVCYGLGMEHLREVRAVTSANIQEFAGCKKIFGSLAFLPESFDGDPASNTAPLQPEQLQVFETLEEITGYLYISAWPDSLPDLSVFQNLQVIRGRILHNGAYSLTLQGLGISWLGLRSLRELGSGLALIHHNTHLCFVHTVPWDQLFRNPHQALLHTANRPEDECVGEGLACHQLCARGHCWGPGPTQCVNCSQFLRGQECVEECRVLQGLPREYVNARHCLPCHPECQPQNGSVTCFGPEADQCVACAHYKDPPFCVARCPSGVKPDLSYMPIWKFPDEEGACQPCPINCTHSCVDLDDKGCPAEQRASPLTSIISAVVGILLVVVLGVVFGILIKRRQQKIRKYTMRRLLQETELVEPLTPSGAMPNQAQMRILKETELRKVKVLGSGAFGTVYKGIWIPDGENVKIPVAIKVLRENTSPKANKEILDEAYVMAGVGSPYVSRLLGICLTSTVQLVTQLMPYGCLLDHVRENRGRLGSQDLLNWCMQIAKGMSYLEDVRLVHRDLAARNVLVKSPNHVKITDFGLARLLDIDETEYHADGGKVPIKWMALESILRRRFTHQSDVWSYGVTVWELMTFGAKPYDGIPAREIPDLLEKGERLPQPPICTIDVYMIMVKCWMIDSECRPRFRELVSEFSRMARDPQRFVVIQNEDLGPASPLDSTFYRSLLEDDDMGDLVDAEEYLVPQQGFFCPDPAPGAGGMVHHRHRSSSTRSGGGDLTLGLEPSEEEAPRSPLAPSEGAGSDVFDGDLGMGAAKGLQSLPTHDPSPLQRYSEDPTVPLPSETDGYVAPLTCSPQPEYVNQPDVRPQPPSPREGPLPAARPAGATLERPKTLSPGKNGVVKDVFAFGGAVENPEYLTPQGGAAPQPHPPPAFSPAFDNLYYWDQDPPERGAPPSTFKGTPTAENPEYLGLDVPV
T4 sequence (P04626 with tags, fused parts or gaps INS775YVMA): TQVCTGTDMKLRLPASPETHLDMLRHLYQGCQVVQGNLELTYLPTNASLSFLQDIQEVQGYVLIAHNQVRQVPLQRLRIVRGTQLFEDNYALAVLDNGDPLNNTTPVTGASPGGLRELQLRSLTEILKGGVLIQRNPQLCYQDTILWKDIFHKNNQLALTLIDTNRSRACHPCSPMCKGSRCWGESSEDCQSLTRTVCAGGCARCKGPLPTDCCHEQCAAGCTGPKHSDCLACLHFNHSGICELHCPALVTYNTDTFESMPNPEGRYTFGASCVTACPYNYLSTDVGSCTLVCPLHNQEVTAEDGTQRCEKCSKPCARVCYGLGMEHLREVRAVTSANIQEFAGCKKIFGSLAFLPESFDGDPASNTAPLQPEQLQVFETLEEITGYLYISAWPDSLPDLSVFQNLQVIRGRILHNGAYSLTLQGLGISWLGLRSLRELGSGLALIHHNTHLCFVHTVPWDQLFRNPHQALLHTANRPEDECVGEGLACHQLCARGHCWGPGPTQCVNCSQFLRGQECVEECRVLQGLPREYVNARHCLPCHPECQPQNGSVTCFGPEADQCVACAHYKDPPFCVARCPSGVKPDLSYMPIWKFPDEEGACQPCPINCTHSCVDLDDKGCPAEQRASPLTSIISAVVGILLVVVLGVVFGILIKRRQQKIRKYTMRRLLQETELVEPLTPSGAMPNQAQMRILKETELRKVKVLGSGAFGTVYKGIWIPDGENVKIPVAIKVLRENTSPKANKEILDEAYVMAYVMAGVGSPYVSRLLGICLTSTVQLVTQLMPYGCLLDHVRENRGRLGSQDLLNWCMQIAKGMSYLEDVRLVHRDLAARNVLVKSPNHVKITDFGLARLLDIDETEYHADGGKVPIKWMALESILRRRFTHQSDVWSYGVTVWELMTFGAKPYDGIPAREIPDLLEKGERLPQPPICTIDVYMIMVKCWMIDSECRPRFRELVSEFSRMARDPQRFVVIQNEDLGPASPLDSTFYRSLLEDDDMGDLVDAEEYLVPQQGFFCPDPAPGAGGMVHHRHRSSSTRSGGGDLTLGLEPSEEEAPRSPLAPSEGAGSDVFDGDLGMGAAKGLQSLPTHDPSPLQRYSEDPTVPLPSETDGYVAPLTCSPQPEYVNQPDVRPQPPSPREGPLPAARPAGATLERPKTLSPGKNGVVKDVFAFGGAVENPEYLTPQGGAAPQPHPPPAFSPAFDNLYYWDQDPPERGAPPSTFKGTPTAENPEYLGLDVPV

Take `COC/C=C/C(=O)Nc1cc2c(Nc3ccc(OCc4ccccn4)c(Cl)c3)ncnc2cc1OCCN1CCOCC1` [compound 112, (E)-N-(4-((3-chloro-4-(pyridin-2-ylmethoxy)phenyl)amino)-7-(2-morpholinoethoxy)quinazolin-6-yl)-4-methoxybut-2-enamide]: the IC50 in assay [1] is 300 to 500 nM; in assay [2] it was 100 to 200 nM; in assay [3], 300 to 500 nM; in assay [4], > 1000 nM; in assay [5], 300 to 500 nM; in assay [6], 100 to 200 nM. For the same molecule, the results for the IC50 in assay [7] and in assay [8] were 300 to 500 nM and > 1000 nM, respectively.
On to `C=CC(=O)Nc1cc2c(Nc3ccc(OCc4ccccn4)c(Cl)c3)ncnc2cc1C#C[C@@H]1[C@H]2CN(C3COC3)C[C@@H]12` [compound 113, N-(4-((3-chloro-4-(pyridin-2-ylmethoxy)phenyl)amino)-7-(((1R,5S,6s)-3-(oxetan-3-yl)-3-azabicyclo[3.1.0]hexan-6-yl)ethynyl)quinazolin-6-yl)acrylamide], for which the IC50 in assay [1] was in the range of 500 to 1000 nM; in assay [2], 50 to 100 nM; in assay [3], 30 to 50 nM; in assay [4], 100 to 200 nM; in assay [5] it was 500 to 1000 nM; in assay [6], 50 to 100 nM. In addition, the IC50 in assay [7] was 30 to 50 nM; in assay [8] it was 100 to 200 nM.
With `C=CC(=O)Nc1cc2c(Nc3ccc(OCc4ccccn4)c(Cl)c3)ncnc2cc1OCCN1CCC(OC)CC1` [compound 114, N-(4-((3-chloro-4-(pyridin-2-ylmethoxy)phenyl)amino)-7-(2-(4-methoxypiperidin-1-yl)ethoxy)quinazolin-6-yl)acrylamide], the IC50 in assay [1] fell in the range of 300 to 500 nM; in assay [2], 30 to 50 nM; in assay [3], 30 to 50 nM; in assay [4], 100 to 200 nM; in assay [5] it was 300 to 500 nM; in assay [6], 30 to 50 nM. Besides, the IC50 is 30 to 50 nM in assay [7] and 100 to 200 nM in assay [8].
With `C=CC(=O)Nc1cc2c(Nc3ccc(OCc4ccccn4)c(Cl)c3)ncnc2cc1OCCN1CC2(CCN2C)C1` [compound 115], the IC50 in assay [1] was 200 to 300 nM; in assay [2] it was 30 to 50 nM; in assay [3], 30 to 50 nM; in assay [4], 50 to 100 nM; in assay [5] it was 200 to 300 nM; in assay [6], 30 to 50 nM. Also, the values for the IC50 in assay [7] and in assay [8] were 30 to 50 nM and 50 to 100 nM, respectively.
For `C=CC(=O)Nc1cc2c(Nc3ccc(OCc4ccccn4)c(Cl)c3)ncnc2cc1OCC1CCN1C` (stereo not drawn) [compound 116, N-(4-((3-chloro-4-(pyridin-2-ylmethoxy)phenyl)amino)-7-((1-methylazetidin-2-yl)methoxy)quinazolin-6-yl)acrylamide], the IC50 in assay [1] lay in the range of 500 to 1000 nM; in assay [2] it was 30 to 50 nM; in assay [3] it was 30 to 50 nM; in assay [4] it was 200 to 300 nM; in assay [5] it was 500 to 1000 nM; in assay [6], 30 to 50 nM. Besides, the IC50 in assay [7] lay in the range of 30 to 50 nM; in assay [8], 200 to 300 nM.
`C=CC(=O)Nc1cc2c(Nc3ccc(Oc4ccccc4)c(C)c3)ncnc2cc1C#C[C@@H]1[C@H]2CN(C)C[C@@H]12` [compound 117, N-(7-(((1R,5S,6s)-3-methyl-3-azabicyclo[3.1.0]hexan-6-yl)ethynyl)-4-((3-methyl-4-phenoxyphenyl)amino)quinazolin-6-yl)acrylamide]: the IC50 lay within 500 to 1000 nM in assay [1]; 100 to 200 nM in assay [2]; 50 to 100 nM in assay [3]; 100 to 200 nM in assay [4]; 500 to 1000 nM in assay [5]; 100 to 200 nM in assay [6]. Moreover, the values for the IC50 in assay [7] and in assay [8] were 50 to 100 nM and 100 to 200 nM, respectively.
For the molecule `C=CC(=O)Nc1cc2c(Nc3ccc(OCc4ccccn4)c(Cl)c3)ncnc2cc1OCCN1CC2(CN(C)C2)C1` [compound 119, N-(4-((3-chloro-4-(pyridin-2-ylmethoxy)phenyl)amino)-7-(2-(6-methyl-2,6-diazaspiro[3.3]heptan-2-yl)ethoxy)quinazolin-6-yl)acrylamide], the IC50 in assay [1] fell in the range of 300 to 500 nM; in assay [2], 50 to 100 nM; in assay [3] it was 50 to 100 nM; in assay [4] it was 100 to 200 nM; in assay [5], 300 to 500 nM; in assay [6], 50 to 100 nM. Also, the IC50 in assay [7] lay within 50 to 100 nM; in assay [8], 100 to 200 nM.
Turning to `C=CC(=O)Nc1cc2c(Nc3ccc(OCc4ccccn4)c(Cl)c3)ncnc2cc1OCCC1COCCN1C` (stereo not drawn) [compound 120, N-(4-((3-chloro-4-(pyridin-2-ylmethoxy)phenyl)amino)-7-(2-(4-methylmorpholin-3-yl)ethoxy)quinazolin-6-yl)acrylamide], the IC50 was > 1000 nM in assay [1]; 30 to 50 nM in assay [2]; 10 to 20 nM in assay [3]; 50 to 100 nM in assay [4]; > 1000 nM in assay [5]; 30 to 50 nM in assay [6]. The IC50 in assay [7] lay within 10 to 20 nM; in assay [8] it was 50 to 100 nM.
As for `C=CC(=O)Nc1cc2c(Nc3ccc(CC(=O)c4ccccn4)c(Cl)c3)ncnc2cc1O[C@@H]1CCN(C)C1` [compound 121], the IC50 in assay [1] is > 1000 nM; in assay [2] it was 100 to 200 nM; in assay [3], 30 to 50 nM; in assay [4], 300 to 500 nM; in assay [5] it was > 1000 nM; in assay [6], 100 to 200 nM. Moreover, the IC50 lay in the range of 30 to 50 nM in assay [7] and 300 to 500 nM in assay [8].
On to `C=CC(=O)Nc1cc2c(Nc3ccc(OCc4ccccn4)c(Cl)c3)ncnc2cc1OCC12CCC(CC1)N2C` [compound 122, N-(4-((3-chloro-4-(pyridin-2-ylmethoxy)phenyl)amino)-7-((7-methyl-7-azabicyclo[2.2.1]heptan-1-yl)methoxy)quinazolin-6-yl)acrylamide], for which the IC50 lay in the range of 500 to 1000 nM in assay [1]; 50 to 100 nM in assay [2]; 100 to 200 nM in assay [3]; 500 to 1000 nM in assay [4]; 500 to 1000 nM in assay [5]; 50 to 100 nM in assay [6]. In addition, the IC50 was 100 to 200 nM in assay [7] and 500 to 1000 nM in assay [8].
With `C=CC(=O)Nc1cc2c(Nc3ccc(OCc4ccccn4)c(Cl)c3)ncnc2cc1OCC1CN(C)C1` [compound 123, N-(4-((3-chloro-4-(pyridin-2-ylmethoxy)phenyl)amino)-7-((1-methylazetidin-3-yl)methoxy)quinazolin-6-yl) Acrylamide], the IC50 in assay [1] was in the range of 200 to 300 nM; in assay [2], 30 to 50 nM; in assay [3], 30 to 50 nM; in assay [4] it was 100 to 200 nM; in assay [5] it was 200 to 300 nM; in assay [6], 30 to 50 nM. Besides, the IC50 fell in the range of 30 to 50 nM in assay [7] and 100 to 200 nM in assay [8].
For the molecule `C=CC(=O)Nc1cc2c(Nc3ccc(OCc4ccccn4)c(Cl)c3)ncnc2cc1C#CC1CC2(C1)CN(C)C2` [compound 124, N-(4-((3-chloro-4-(pyridin-2-ylmethoxy)phenyl)amino)-7-((2-methyl-2-azaspiro[3.3]heptan-6-yl)ethynyl)quinazolin-6-yl)acrylamide], the IC50 is 500 to 1000 nM in assay [1]; 30 to 50 nM in assay [2]; 30 to 50 nM in assay [3]; 100 to 200 nM in assay [4]; 500 to 1000 nM in assay [5]; 30 to 50 nM in assay [6]. Also, the IC50 in assay [7] lay within 30 to 50 nM; in assay [8], 100 to 200 nM.
